Tests used:
LNCaP cells [1] = test: Effect of enzalutamide on redirected T-cell cytotoxicity in LNCaP cells expressing GFP (Example 1); type: cell-based, human; conditions: enzalutamide alone, […] nM in 0.2% DMSO, no T-cells, 4 days
Description: A titration of the anti-PSMA bispecific molecule TSC249 (protein sequence of SEQ ID NO: 78 in Table 3) was added to all sets of LNCaP cells in the amounts shown on the x-axis. T-cells and DMSO were added to the first set of LNCaP cells (leftmost set of bars). […] No T-cells and DMSO were added to the third set of LNCaP cells (set of bars second from the right). […] LNCaP cell growth (number of live cells) was measured by overall fluorescence and expressed as a fraction of live cells relative to the cells untreated with TSC249 on the y-axis.
LNCaP cells expressing GFP were cultured with donor T-cells at a 3:1 ratio of T-cells to LNCaP target cells for 4 days. […] DMSO alone was added to other samples. A titration of the anti-PSMA bispecific molecule TSC249 (protein sequence of SEQ ID NO: 78 in Table 3) was added to the cell cultures. LNCaP cell growth (number of live cells) was monitored by overall fluorescence.

22Rv1 cells [2] = test: Flow cytometry: effect of prolonged enzalutamide treatment on PSMA expression level of 22Rv1 cells (Example 4); type: cell-based, human; conditions: 10 μM enzalutamide
From the text: Mean fluorescence intensity (MFI) of bound molecules on live cells is shown on the y-axis. Concentration (nM) of the anti-PSMA monoclonal antibody 107-1A4 labeled with FITC is shown on the x-axis.
22Rv1 cells (PSMA+ at low level) were obtained from ATCC (Manassas, Va.) and cultured according to the ATCC protocol in RPMI-1640 media plus 10% FBS. […] All four cultures were harvested, stained for PSMA with FITC-labeled anti-PSMA monoclonal antibody 107-1A4 (Acris), and PSMA expression assayed by standard flow cytometry procedures. 22Rv1 cells were harvested with trypsin, and placed into FACS buffer (PBS+0.5% BSA [Equitech]+2 mM EDTA [Life Technologies]) at 1×10e6 per ml. FITC-107-1A4 was prepared at 36 nM in FACS buffer, and serially diluted 1:3, before adding 50 μl to 2×10e5 22Rv1 cells which had been pelleted in a 96 well plate. After 30 minute incubation on ice, cells were washed 3 times in FACS buffer, resuspended in FACS buffer, and data acquired on a BD LSRII flow cytometer. The sample files were analyzed using FlowJo software; the median fluorescence intensity (MFI) of the live population of 22Rv1 cells in each well was calculated after gating on live cells (forward vs side scatter). Median fluorescence intensities were fit to a 4-parameter logistic curve and graphed as concentration vs. MFI using GraphPad PRISM® software.

22Rv1 cells [3] = test: Chromium-51 release assay of redirected T-cell cytotoxicity against 22Rv1 cells (Example 5); type: cell-based, human; conditions: 22Rv1 cells resistant to enzalutamide, 10 μM enzalutamide pre-treatment
Description: FIG. 3 (top panel) is a graph showing the results of a chromium-51 release assay measuring the effectiveness of the anti-PSMA bispecific molecule TSC249 at inducing redirected T-cell cytotoxicity in 4 hours against enzalutamide-treated and untreated prostate cancer 22Rv1 cells. Percent specific lysis relative to a total lysis control is shown on the y-axis. Concentration (pM) of the anti-PSMA bispecific molecule TSC249 is shown on the x-axis.
To compare the sensitivity of enzalutamide-treated and untreated 22Rv1 prostate cancer cells to target-dependent T-cell cytotoxicity, a bispecific binding molecule targeting PSMA and CD3 was tested in a chromium (^51Cr) release assay using donor T-cells as effector cells. [See, e.g., US 2014/0161800 A1, which describes multispecific binding molecules that bind to prostate-specific membrane antigen (PSMA) and CD3.]
Cytotoxicity was assessed by a ^51Cr release assay. […]
Plates were incubated for 4 hours, spun at 225×g for 3 minutes, and 25 μL of supernatant was transferred from each well to the corresponding well of a 96-well LUMAPLATE® sample plate (Perkin Elmer). Sample plates were allowed to air dry in a chemical safety hood for 18 hours, and then radioactivity was read on a Topcount scintillation counter using a standard protocol. […]

LNCaP cells [4] = test: Growth inhibition of LNCaP-GFP cells with primary human T-cells, 4 days, with combination index analysis (Example 6); type: cell-based; conditions: enzalutamide plus TSC249 over a wide range of concentrations, T-cells, 4 days
Description: Additional procedures are described in Example 6. Percentage of live cells relative to an untreated control is shown on the y-axis.
Combination indices can indicate additive effects (CI=1), synergism (CI<1), or antagonism (CI>1).
Overall fluorescent signal from GFP enabled the quantitation of living LNCaP target cells in isolation from T-cells. […] TSC249 was added to have final concentrations of 125, 62.5, 31.25, 15.6, 7.8, 3.9, or 1.95 pM, or none. T-cells from several donors were used in replicate experiments, added at a ratio of 45,000 T-cells to 15,000 LNCaP cells per well.
After 4 days culture at 37° C. in 5% CO2, media was aspirated from wells and […] of 0.4% NP-40 was added to each well. Fluorescent signal from GFP in LNCaP cells adherent in wells was detected by a Spectramax plate reader, reading from the bottom of the wells. […]
The combination index theorem developed by Chou and Talalay was used to determine the interaction between the two compounds in their anti-cancer activity (see Chou, Cancer Res. 2010 Jan. 15; 70(2):440-6; Chou, Pharmacol Rev. 2006 September; 58(3):621-81). For each plate, relative fluorescence units (RFU) of all wells were normalized to the RFU of the well containing cells only, i.e., the proportion of living LNCaP cells in each well was expressed in relation to untreated LNCaP cells. […] Mean values were calculated from three replicates. […]

Compound: CNC(=O)c1ccc(N2C(=S)N(c3ccc(C#N)c(C(F)(F)F)c3)C(=O)C2(C)C)cc1F [enzalutamide]
- reduction of live cells (LNCaP cells [1]): ~20%
- MFI from binding of FITC-107-1A4 to the 22Rv1 cells (PSMA expression) (22Rv1 cells [2]; one week of incubation, vs cells cultured without enzalutamide): increase in the MFI
- MFI from binding of FITC-107-1A4 to the 22Rv1 cells (PSMA expression) (22Rv1 cells [2]; three weeks of incubation): no additional increases
- MFI from binding of FITC-107-1A4 to the 22Rv1 cells (PSMA expression) (22Rv1 cells [2]; two weeks of incubation): additional increase in the MFI value
- sensitivity of target cells to T-cell mediated lysis (22Rv1 cells [3]): increasing the sensitivity
- live cell signal when combined with the other drug (LNCaP cells [4]): further decrease in live cell signal

Source: patent US20180022819A1, “COMPOSITIONS AND METHODS FOR COMBINATION THERAPY WITH PROSTATE-SPECIFIC MEMBRANE ANTIGEN BINDING PROTEINS” (APTEVO RESEARCH AND DEVELOPMENT LLC, priority 2015, published 2018)
